In patent publication US11117883B2 (Ariad Pharmaceuticals, Inc., priority 2016, dated 2021):

Tests used:
[1] = tested on: gastrointestinal stromal tumors (GIST); details: third line therapy; cited from earlier work
[2] = biological target: T1, BAF3 FL KIT EX11DEL/D816H (Homo sapiens, UniProt P10721, D816H, cells depend on it, form not given); experiment: c-Kit assay: Ba/F3 KIT mutant viability (Cell Titer-Glo, 72 hours); type: cell-based; details: viability after 72 hours
T1 construct: "BAF3 FL KIT EX11DEL/ D816H"
Experimental: (§1) KIT cDNAs were synthesized by GenScript and cloned into the pLVX-IRES-Puro vector (Clontech). Viral particles were produced by transfecting pLVX-IRES-puro vectors containing KIT mutant genes into HEK293 cells (Invitrogen) using the Trans-Lentiviral ORF Packaging Kit (Thermo Scientific). 48 hours post-transfection, virus-containing supernatants were harvested and incubated for another 48-72 hours with parental Ba/F3 cells (DSMZ) in the presence of 10 ng/mL […] (R&D Systems). Transduced Ba/F3 cells were then selected by IL-3 withdrawal and puromycin (0.5-1 μg/mL, Invitrogen).
(§2) Cell lines (i.e., EX11DEL, EX11DEL/D816H, EX11DEL/T670I, and EX11DEL/V654A) were plated into 384 well plates using RPMI 1640 supplemented with 10% FBS at densities that produced linear growth and incubated at 37° C. in 5% (v/v) CO2. Cells were treated with eight concentrations of compound over a 4-fold dilution (10 μM to 0.61 nM) and viability was assessed using Cell Titer-Glo assay (Promega) after 72 hours. Data were plotted as percent viability relative to vehicle-treated cells. Dose-responses curves were generated and used to calculate IC50 values.

BAF3 FL KIT EX11DEL = biological target: T2, BAF3 FL KIT EX11DEL (Homo sapiens, UniProt P10721, cells depend on it, form not given); experiment: as above; type: cell-based; details: viability after 72 hours
T2 construct: "BAF3 FL KIT EX11DEL"
Experimental: as §1, §2

[3] = biological target: T3, BAF3 FL KIT EX11DEL/T6701 (Homo sapiens, UniProt P10721, T670I, cells depend on it, form not given); experiment: as above; type: cell-based; details: EX11DEL/T6701, viability after 72 hours
T3 construct: "BAF3 FL KIT EX11DEL/ T6701"
Experimental: as §1, §2

[4] = biological target: T4, BAF3 FL KIT EX11DEL/V654A (Homo sapiens, UniProt P10721, V654A, cells depend on it, form not given); experiment: as above; type: cell-based; details: viability after 72 hours
T4 construct: "BAF3 FL KIT EX11DEL/ V654A"
Experimental: as §1, §2

T4 sequence (P10721 with tags, fused parts or gaps DEL557-558/V654A, form open): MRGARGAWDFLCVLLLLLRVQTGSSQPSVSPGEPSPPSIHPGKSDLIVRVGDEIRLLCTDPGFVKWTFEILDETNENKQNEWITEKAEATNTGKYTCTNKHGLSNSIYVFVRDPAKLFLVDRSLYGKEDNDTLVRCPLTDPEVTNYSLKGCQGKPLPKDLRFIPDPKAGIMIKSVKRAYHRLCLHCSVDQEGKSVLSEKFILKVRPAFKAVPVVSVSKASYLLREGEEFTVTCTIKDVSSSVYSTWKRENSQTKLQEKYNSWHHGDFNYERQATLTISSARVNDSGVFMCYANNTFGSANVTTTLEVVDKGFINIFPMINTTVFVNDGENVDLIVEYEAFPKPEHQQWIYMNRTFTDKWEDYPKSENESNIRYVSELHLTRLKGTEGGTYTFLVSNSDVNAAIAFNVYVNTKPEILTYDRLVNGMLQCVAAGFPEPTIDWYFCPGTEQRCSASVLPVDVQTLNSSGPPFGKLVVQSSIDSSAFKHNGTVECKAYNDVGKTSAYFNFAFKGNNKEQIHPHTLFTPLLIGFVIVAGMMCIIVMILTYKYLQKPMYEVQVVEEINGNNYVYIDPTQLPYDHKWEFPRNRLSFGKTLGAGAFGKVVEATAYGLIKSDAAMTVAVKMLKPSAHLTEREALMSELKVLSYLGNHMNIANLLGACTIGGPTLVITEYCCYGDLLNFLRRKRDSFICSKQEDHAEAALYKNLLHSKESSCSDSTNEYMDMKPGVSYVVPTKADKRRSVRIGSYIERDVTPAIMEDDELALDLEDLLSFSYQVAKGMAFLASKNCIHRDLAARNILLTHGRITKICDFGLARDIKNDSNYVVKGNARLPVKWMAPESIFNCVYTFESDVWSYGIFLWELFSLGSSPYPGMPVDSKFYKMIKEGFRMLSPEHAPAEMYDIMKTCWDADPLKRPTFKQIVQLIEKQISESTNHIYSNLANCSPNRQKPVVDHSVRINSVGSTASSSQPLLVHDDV
T2 sequence (P10721 with tags, fused parts or gaps DEL557-558): as the sequence (P10721 with tags, fused parts or gaps DEL557-558/V654A, form open) above, with A652V counted along it
T1 sequence (P10721 with tags, fused parts or gaps DEL557-558/D816H, form open): as the sequence (P10721 with tags, fused parts or gaps DEL557-558/V654A, form open) above, with A652V, D814H counted along it
T3 sequence (P10721 with tags, fused parts or gaps DEL557-558/T670I, form open): as the sequence (P10721 with tags, fused parts or gaps DEL557-558/V654A, form open) above, with A652V, T668I counted along it

For `CNC(=O)c1cc(Oc2ccc(NC(=O)Nc3ccc(Cl)c(C(F)(F)F)c3)c(F)c2)ccn1` [Regorafenib], the ORR [1] is listed as 4.5% and the “median PFS” value [1] is listed as 4.8 months.

Compound `Cc1ccc(C(=O)Nc2cc(C(F)(F)F)ccn2)cc1C#Cc1ccc2c(c1)ncn2-c1cnn(C)c1` [Compound I-17, 4-methyl-3-((1-(1-methyl-1H-pyrazol-4-yl)-1H-benzo[d]imidazol-5-yl)ethynyl)-N-(4-(trifluoromethyl)pyridin-2-yl)benzamide] has a GI50 [2] of 50 to 100 nM, a GI50 (BAF3 FL KIT EX11DEL) of 10 to 50 nM and a GI50 [3] of 10 to 50 nM. It also gave a GI50 [4] of 10 to 50 nM.

With `Cc1ccc(C(=O)Nc2cc(C(F)(F)F)ccn2)cc1C#Cc1ccc2c(c1)ncn2-c1cnn(C2CCOCC2)c1` [Compound I-33, 4-methyl-3-((1-(1-(tetrahydro-2H-pyran-4-yl)-1H-pyrazol-4-yl)-1H-benzo[d]imidazol-5-yl)ethynyl)-N-(4-(trifluoromethyl)pyridin-2-yl)benzamide] the GI50 [2] was 10 to 50 nM, the GI50 (BAF3 FL KIT EX11DEL) was < 10 nM and the GI50 [3] was < 10 nM. It also gave a GI50 [4] of 10 to 50 nM.

In the case of `Cc1ccc(C(=O)Nc2ccc(CN3CCCC3)c(C(F)(F)F)c2)cc1C#Cc1ccc2c(c1)ncn2-c1cnn(C)c1` [Compound I-29, 4-methyl-3-((1-(1-methyl-1H-pyrazol-4-yl)-1H-benzo[d]imidazol-5-yl)ethynyl)-N-(4-(pyrrolidin-1-ylmethyl)-3-(trifluoromethyl)phenyl)benzamide], the GI50 [2] is reported as 10 to 50 nM, the GI50 (BAF3 FL KIT EX11DEL) is reported as 10 to 50 nM and the GI50 [3] is reported as 10 to 50 nM. For the same compound, the GI50 [4] was 50 to 100 nM.

`Cc1ccc(C(=O)Nc2cc(C(F)(F)F)ccn2)cc1C#Cc1ccc2c(c1)ncn2C1CCN(C)CC1` [Compound I-20, 4-methyl-3-((1-(1-methylpiperidin-4-yl)-1H-benzo[d]imidazol-5-yl)ethynyl)-N-(4-(trifluoromethyl)pyridin-2-yl)benzamide] gave a GI50 [2] of 100 to 10000 nM, a GI50 (BAF3 FL KIT EX11DEL) of 10 to 50 nM and a GI50 [3] of 100 to 10000 nM. For the same compound, the GI50 [4] was 100 to 10000 nM.

For `Cc1ccc(C(=O)Nc2cc(C(F)(F)F)ccn2)cc1C#Cc1ccc2c(c1)ncn2-c1cn(C)nn1` [Compound I-24, 4-methyl-3-((1-(1-methyl-1H-1,2,3-triazol-4-yl)-1H-benzo[d]imidazol-5-yl)ethynyl)-N-(4-(trifluoromethyl)pyridin-2-yl)benzamide], the GI50 [2] was 10 to 50 nM, the GI50 (BAF3 FL KIT EX11DEL) was < 10 nM and the GI50 [3] was < 10 nM. For the same compound, the GI50 [4] was 10 to 50 nM.

Work on `Cc1ccc(C(=O)Nc2cc(C(F)(F)F)ccn2)cc1C#Cc1ccc2c(c1)ncn2-c1ccccc1` [Compound I-21, 4-methyl-3-((1-phenyl-1H-benzo[d]imidazol-5-yl)ethynyl)-N-(4-(trifluoromethyl)pyridin-2-yl)benzamide] yielded a GI50 [2] of 100 to 10000 nM, a GI50 (BAF3 FL KIT EX11DEL) of 100 to 10000 nM and a GI50 [3] of 100 to 10000 nM. It also gave a GI50 [4] of 100 to 10000 nM.
